The target of test [1] is Carbonic anhydrase 9 (Homo sapiens, UniProt Q16790). Briefly: Inhibition of recombinant human Carbonic anhydrase 9 assessed as reduction in CO2 hydration preincubated for 15 mins prior to testing measured for 10 to 100 secs by stopped-flow assay.
The target of test [2] is Carbonic anhydrase 1 (Homo sapiens, UniProt P00915). Put plainly: Inhibition of recombinant human Carbonic anhydrase 1 assessed as reduction in CO2 hydration preincubated for 15 mins prior to testing measured for 10 to 100 secs by stopped-flow assay.
Carbonic anhydrase 1, sequence (P00915 whole entry): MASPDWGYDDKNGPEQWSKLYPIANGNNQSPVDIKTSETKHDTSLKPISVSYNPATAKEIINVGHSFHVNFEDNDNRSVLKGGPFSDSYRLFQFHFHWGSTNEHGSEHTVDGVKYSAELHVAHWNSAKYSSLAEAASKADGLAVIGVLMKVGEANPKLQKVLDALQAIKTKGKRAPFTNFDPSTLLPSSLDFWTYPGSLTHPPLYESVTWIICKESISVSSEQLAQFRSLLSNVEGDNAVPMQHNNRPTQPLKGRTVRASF
The target in test [3] is Carbonic anhydrase 2 (Homo sapiens, UniProt P00918). Briefly: Inhibition of recombinant human Carbonic anhydrase 2 assessed as reduction in CO2 hydration preincubated for 15 mins prior to testing measured for 10 to 100 secs by stopped-flow assay.
Test [4] has as its target Carbonic anhydrase 5A, mitochondrial (Homo sapiens, UniProt P35218). Briefly: Inhibition of recombinant human Carbonic anhydrase 5A assessed as reduction in CO2 hydration preincubated for 15 mins prior to testing measured for 10 to 100 secs by stopped-flow assay.
Test [5] addresses Carbonic anhydrase 5B, mitochondrial (Homo sapiens, UniProt Q9Y2D0). Put plainly: Inhibition of recombinant human Carbonic anhydrase 5B assessed as reduction in CO2 hydration preincubated for 15 mins prior to testing measured for 10 to 100 secs by stopped-flow assay.
The target in test [6] is Carbonic anhydrase 12 (Homo sapiens, UniProt O43570). Put plainly: Inhibition of recombinant human Carbonic anhydrase 12 assessed as reduction in CO2 hydration preincubated for 15 mins prior to testing measured for 10 to 100 secs by stopped-flow assay.
Carbonic anhydrase 12, sequence (O43570 whole entry): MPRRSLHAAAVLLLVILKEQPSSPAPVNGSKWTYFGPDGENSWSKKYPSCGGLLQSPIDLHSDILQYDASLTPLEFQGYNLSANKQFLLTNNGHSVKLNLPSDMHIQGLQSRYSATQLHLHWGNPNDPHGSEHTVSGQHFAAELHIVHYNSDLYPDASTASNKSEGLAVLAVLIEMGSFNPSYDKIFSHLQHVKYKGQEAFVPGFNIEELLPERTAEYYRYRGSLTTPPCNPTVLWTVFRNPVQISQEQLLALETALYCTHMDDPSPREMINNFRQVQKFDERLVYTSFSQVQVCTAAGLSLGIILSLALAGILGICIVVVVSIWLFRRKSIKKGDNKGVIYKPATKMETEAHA
Test [7] in a line: Inhibition of carbonic anhydrase in mouse whole blood assessed as reduction in CO2 hydration preincubated for 15 mins prior to testing measured for 10 to 100 secs by stopped-flow assay.
The nature of test [8]: Inhibition of carbonic anhydrase in rat whole blood assessed as reduction in CO2 hydration preincubated for 15 mins prior to testing measured for 10 to 100 secs by stopped-flow assay.
Test [9] in a line: Inhibition of carbonic anhydrase in human whole blood assessed as reduction in CO2 hydration preincubated for 15 mins prior to testing measured for 10 to 100 secs by stopped-flow assay.

This note sets out measurements from ChEMBL document CHEMBL4007464, “Lead Development of Thiazolylsulfonamides with Carbonic Anhydrase Inhibitory Action” (J Med Chem, 2017).

Carbonic anhydrase 5B, mitochondrial, sequence (Q9Y2D0 whole entry): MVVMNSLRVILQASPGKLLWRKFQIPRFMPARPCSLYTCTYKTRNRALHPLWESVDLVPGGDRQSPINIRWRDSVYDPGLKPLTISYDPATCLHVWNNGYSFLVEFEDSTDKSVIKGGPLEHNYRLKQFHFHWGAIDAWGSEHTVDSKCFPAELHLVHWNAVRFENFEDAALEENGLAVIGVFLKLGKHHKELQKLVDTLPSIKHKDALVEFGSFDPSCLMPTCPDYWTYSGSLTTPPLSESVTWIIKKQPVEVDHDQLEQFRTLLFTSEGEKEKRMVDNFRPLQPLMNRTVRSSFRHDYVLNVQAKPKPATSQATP
Carbonic anhydrase 5A, mitochondrial, sequence (P35218 whole entry): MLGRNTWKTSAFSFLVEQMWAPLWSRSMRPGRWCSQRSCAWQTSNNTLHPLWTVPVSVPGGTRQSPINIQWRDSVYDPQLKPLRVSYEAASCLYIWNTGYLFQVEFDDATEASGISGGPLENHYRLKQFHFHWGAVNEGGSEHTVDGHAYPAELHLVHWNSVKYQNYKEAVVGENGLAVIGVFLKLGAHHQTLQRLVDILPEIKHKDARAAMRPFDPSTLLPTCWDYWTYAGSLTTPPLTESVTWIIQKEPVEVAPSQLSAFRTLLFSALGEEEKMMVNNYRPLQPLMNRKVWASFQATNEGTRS

In general, Ki refers to the dissociation constant of the complex between target and ligand, obtained from inhibition or displacement. Regarding `Cc1nc(N(C)C(=O)Cc2ccc(-c3ccccc3)cc2)sc1S(N)(=O)=O`, in test [1], the inhibitory constant (Ki) came to 0.9 nM. As to `Cc1nc(N(C)C(=O)Cc2ccc(-c3cc(F)ccc3F)cc2)sc1S(N)(=O)=O`, the inhibition constant (Ki) in test [1] came to 51.4 nM. For the molecule `Cc1nc(N(C)C(=O)Cc2ccc(-c3cnccn3)cc2)sc1S(N)(=O)=O`, the Ki in test [1] worked out at 69.1 nM. Same read-out and setting: in the case of `Cc1nc(N(C)C(=O)Cc2ccc(-c3ccccc3F)cc2)sc1S(N)(=O)=O` it was 10.1 nM. The same measure, in the same setting: the result for `CN(C(=O)Cc1ccc(-c2ccccn2)cc1)c1nc(CO)c(S(N)(=O)=O)s1` reads 42.9 nM; that for `CNS(=O)(=O)c1sc(N(C)C(=O)Cc2ccc(-c3ccccn3)cc2)nc1C`, 24.7 nM. Still for that read-out and setting: in the case of `CCc1nc(N(C)C(=O)Cc2ccc(-c3ccccn3)cc2)sc1S(N)(=O)=O` it was 28.1 nM; in that of `CNS(=O)(=O)c1sc(N(CCN(C)C)C(=O)Cc2ccc(-c3ccccc3)cc2)nc1C`, 14 nM; in that of `Cc1nc(N(C)C(=O)Cc2ccc(-c3cccc[n+]3C)cc2)sc1S(N)(=O)=O`, 261 nM. For `Cc1nc(N(C)C(=O)Cc2ccc(-n3cccn3)cc2)sc1S(N)(=O)=O`, the inhibitory constant (Ki) in [1] was determined as 35 nM.

As to `Cc1nc(N(CCN(C)C)C(=O)Cc2ccc(-c3ccccc3)cc2)sc1S(N)(=O)=O`, the Ki in test [1] was found to be 22 nM. As usually defined, the IC50 is the concentration needed to halve the response being measured. In the case of `Cc1nc(N(C)C(=O)Cc2ccc(-c3ccccn3)cc2)sc1S(N)(=O)=O` [PRITELIVIR], the inhibition constant (Ki) in test [2] amounted to 323 nM; in [3] it was 12.8 nM; in [4], 474 nM; in test [5], 389 nM; in [1] it was 81 nM; in [6], 77.2 nM. The values for the IC50 in [7], in test [8] and in test [9] were 134 nM, 115 nM and 65.3 nM, respectively. `CNS(=O)(=O)c1sc(N(C)C(=O)Cc2ccc(-c3ccccc3F)cc2)nc1C`: in test [1], the inhibition constant (Ki) is 25.6 nM.

As for `Cc1nc(N(C)C(=O)Cc2ccc(-c3cccc(F)c3)cc2)sc1S(N)(=O)=O`, the inhibitory constant (Ki) in test [1] is 0.9 nM. Same read-out and setting: in the case of `COc1c(F)cccc1-c1ccc(CC(=O)N(C)c2nc(C)c(S(N)(=O)=O)s2)cc1` it was 21.8 nM.

Take `Cc1nc(N(C)C(=O)Cc2ccc(-c3ccccn3)cc2)sc1S(N)(=O)=O`: the Ki in test [2] was determined as 262 nM; in test [3] it was 14 nM; in test [4], 816 nM; in test [5] it was 251 nM; in [1] it was 464 nM; in test [6] it was 61.3 nM. `CNS(=O)(=O)c1sc(N(C)C(=O)Cc2ccc(-c3ccccc3)cc2)nc1C`: in [1], the inhibitory constant (Ki) was found to be 40.8 nM. As for `Cc1nc(N(C(=O)Cc2ccc(-c3ccccc3)cc2)C2CC2)sc1S(N)(=O)=O`, the Ki in test [1] was found to be 1 nM. Same read-out and setting: in the case of `Cc1nc(N(C)C(=O)Cc2ccc(-c3ccccc3)cc2)sc1S(=O)(=O)NCCO` it was 44.5 nM.
